27 molecules from patent US9073895B2 (Boehringer Ingelheim International GmbH, priority 2010, dated 2015) can be followed below.

The target of experiment [1] is T1, recombinant human FLAP protein (Homo sapiens, UniProt P20292).
T1 construct: made in house; host or cells: Sf9 insect cells (membrane fraction, 100,000 x g pellet)
T1 sequence (P20292 1-161): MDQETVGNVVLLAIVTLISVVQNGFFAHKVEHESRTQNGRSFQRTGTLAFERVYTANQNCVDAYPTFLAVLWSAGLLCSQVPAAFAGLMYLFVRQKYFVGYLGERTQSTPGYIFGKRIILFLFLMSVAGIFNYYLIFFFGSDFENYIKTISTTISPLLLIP
The experiment in a line: FLAP binding assay (SPA, displacement of [125I]L-691,831). The note with it: membranes of sf9 cells expressing human FLAP, [125I]L-691,831 probe; read-out: hFLAP binding IC50. The gist of the method:
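Membranes from sf9 cells expressing human FLAP (5 μg/well) were bound to WGA SPA beads (200 μg/well). Nonspecific binding was defined with 10 μM unlabelled L-691,831.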

Experiment [2] relates to synthesis of LTB4 in human whole blood. The experiment in a line: Human whole blood LTB4 production inhibition assay. The note with it: heparinized human whole blood, calcimycin 20 μM, plasma LTB4; read-out: HuWB IC50. The experiment is classed as cell-based. The gist of the method:
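Heparinized human whole blood was preincubated with compound for 15 min at 37° C, then stimulated with calcimycin (20 μM final, in PBS pH 7.4) for a further 30 min at 37° C. Plasma LTB4 was quantified by antibody-based homogeneous time-resolved fluorescence.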

Take `Cc1nc(-c2ccc(NC(=O)C3(c4ccc(-c5cnc(N)nc5)cc4)CCOCC3)nc2)cs1` [Example 122, 4-[4-(2-aminopyrimidin-5-yl)phenyl]-N-[5-(2-methyl-1,3-thiazol-4-yl)pyridin-2-yl]tetrahydro-2H-pyran-4-carboxamide]: the IC50 came to 9.53 nM in experiment [1] and 1040 nM in experiment [2].

`Cc1nc(-c2ccc(NC(=O)C3(c4ccc(-c5cnc(N)nc5)cc4)CCCCC3)nc2)cs1` [Example 123, 1-[4-(2-aminopyrimidin-5-yl)phenyl]-N-[5-(2-methyl-1,3-thiazol-4-yl)pyridin-2-yl]cyclohexanecarboxamide]: the half-maximal inhibitory concentration (IC50) came to 4 nM in experiment [1] and 919 nM in experiment [2].

Turning to `CC(C)(C)c1nsc(NC(=O)C2(c3ccc(-c4cnc(N)nc4)cc3)CCOCC2)n1` [Example 124, 4-[4-(2-aminopyrimidin-5-yl)phenyl]-N-(3-tert-butyl-1,2,4-thiadiazol-5-yl)tetrahydro-2H-pyran-4-carboxamide], the IC50 in experiment [1] is 77.5 nM; in experiment [2], 2170 nM.

For the molecule `Nc1ncc(-c2ccc(C3(C(=O)Nc4cc(C(F)(F)F)no4)CCOCC3)cc2)cn1` [Example 125, 4-[4-(2-aminopyrimidin-5-yl)phenyl]-N-[3-(trifluoromethyl)-1,2-oxazol-5-yl]tetrahydro-2H-pyran-4-carboxamide], the 50% inhibitory concentration (IC50) in experiment [1] is 173 nM; in experiment [2], 5560 nM.

`CC(C)(C)c1noc(NC(=O)C2(c3ccc(-c4cnc(N)nc4)cc3)CCCCC2)n1` [Example 126, 1-[4-(2-aminopyrimidin-5-yl)phenyl]-N-(3-tert-butyl-1,2,4-oxadiazol-5-yl)cyclohexanecarboxamide]: the IC50 is 180 nM in experiment [1] and 12000 nM in experiment [2].

Consider `CC(C)C(C)(C(=O)Nc1ccccn1)c1ccc(-c2cnc(N)nc2)cc1` (stereo not drawn) [Example 127, 2-[4-(2-aminopyrimidin-5-yl)phenyl]-2,3-dimethyl-N-(pyridin-2-yl)butanamide], for which the IC50 is 9 nM in experiment [1] and 3220 nM in experiment [2].

`Cc1nc(-c2ccc(NC(=O)C3(c4ccc(-c5cnc(N)nc5)cn4)CCOCC3)nc2)cs1` [Example 128, 4-[5-(2-aminopyrimidin-5-yl)pyridin-2-yl]-N-[5-(2-methyl-1,3-thiazol-4-yl)pyridin-2-yl]tetrahydro-2H-pyran-4-carboxamide]: the concentration for half-maximal inhibition (IC50) in experiment [1] turned out to be 140 nM; in experiment [2] it was 815 nM.

As for `Nc1ncc(-c2ccc(C3(C(=O)Nc4ccccn4)CCC3)cc2)cn1` [Example 129, 1-[4-(2-aminopyrimidin-5-yl)phenyl]-N-(pyridin-2-yl)cyclobutanecarboxamide], the IC50 in experiment [1] is 10.4 nM; in experiment [2] it was 8620 nM.

As for `COc1cncc(-c2ccc(NC(=O)C3(c4ccc(-c5cnc(N)nc5)cc4)CCC3)nc2)c1` [Example 130, 1-[4-(2-aminopyrimidin-5-yl)phenyl]-N-(5'-methoxy-3,3'-bipyridin-6-yl)cyclobutanecarboxamide], the half-inhibitory concentration (IC50) in experiment [1] came to 1.52 nM; in experiment [2], 224 nM.

As for `Cc1nc(-c2ccc(NC(=O)C3(c4ccc(-c5cnc(N)nc5)cc4)CCC3)nc2)cs1` [Example 131, 1-[4-(2-aminopyrimidin-5-yl)phenyl]-N-[5-(2-methyl-1,3-thiazol-4-yl)pyridin-2-yl]cyclobutanecarboxamide], the IC50 came out at 2.2 nM in experiment [1] and 414 nM in experiment [2].

Consider `COc1cncc(-c2ccc(NC(=O)C3(c4ccc(-c5cnc(N)nc5)nc4)CCOCC3)nc2)c1` [Example 132, 4-[6-(2-aminopyrimidin-5-yl)pyridin-3-yl]-N-(5′-methoxy-3,3′-bipyridin-6-yl)tetrahydro-2H-pyran-4-carboxamide], for which the IC50 was 220 nM in experiment [1] and 1510 nM in experiment [2].

For the molecule `Cc1nc(-c2ccc(NC(=O)C(c3ccc(-c4cnc(N)nc4)cc3)C(C)C)nc2)cs1` (stereo not drawn) [Example 133, 2-[4-(2-aminopyrimidin-5-yl)phenyl]-3-methyl-N-[5-(2-methyl-1,3-thiazol-4-yl)pyridin-2-yl]butanamide], the half-inhibitory concentration (IC50) in experiment [1] came to 9.4 nM; in experiment [2], 4400 nM.

Turning to `COc1ccc(-c2ccc(NC(=O)C3(c4ccc(-c5cnc(N)nc5)cc4)CCOCC3)nc2)cn1` [Example 134, 4-[4-(2-aminopyrimidin-5-yl)phenyl]-N-(6'-methoxy-3,3'-bipyridin-6-yl)tetrahydro-2H-pyran-4-carboxamide], the 50% inhibitory concentration (IC50) in experiment [1] came to 17.5 nM; in experiment [2], 651 nM.

For the molecule `COc1cncc(-c2ccc(NC(=O)C3(c4ccc(-c5cnc(N)nc5)cc4)CCOCC3)nc2)c1` [Example 135, 4-[4-(2-aminopyrimidin-5-yl)phenyl]-N-(5'-methoxy-3,3'-bipyridin-6-yl)tetrahydro-2H-pyran-4-carboxamide], the IC50 in experiment [1] amounted to 11.1 nM; in experiment [2] it was 738 nM.

For `CC(C)C(C)(C(=O)Nc1ccc(Cl)cn1)c1ccc(-c2cnc(N)nc2)cc1` (stereo not drawn) [Example 136, 2-[4-(2-aminopyrimidin-5-yl)phenyl]-N-(5-chloropyridin-2-yl)-2,3-dimethylbutanamide], the concentration for half-maximal inhibition (IC50) in experiment [1] turned out to be 10.3 nM; in experiment [2], 4690 nM.

Take `Nc1ncc(-c2ccc(C3(C(=O)Nc4ccccn4)CCOCC3)cc2)cn1` [Example 138, 4-[4-(2-aminopyrimidin-5-yl)phenyl]-N-(pyridin-2-yl)tetrahydro-2H-pyran-4-carboxamide]: the half-maximal inhibitory concentration (IC50) in experiment [1] stood at 300 nM; in experiment [2], 11800 nM.

For `Nc1ncc(-c2ccc(C3(C(=O)Nc4ccc5ccccc5n4)CCOCC3)cc2)cn1` [Example 142, 4-[4-(2-aminopyrimidin-5-yl)phenyl]-N-(quinolin-2-yl)tetrahydro-2H-pyran-4-carboxamide], the IC50 in experiment [1] stood at 39 nM; in experiment [2] it was 11300 nM.

`Nc1ncc(-c2ccc(C3(C(=O)Nc4ccc(-c5cscn5)cn4)CCOCC3)cc2)cn1` [Example 143, 4-[4-(2-aminopyrimidin-5-yl)phenyl]-N-[5-(1,3-thiazol-4-yl)pyridin-2-yl]tetrahydro-2H-pyran-4-carboxamide]: the half-maximal inhibitory concentration (IC50) was 17.1 nM in experiment [1] and 646 nM in experiment [2].

In the case of `Cn1cnc(-c2ccc(NC(=O)C3(c4ccc(-c5cnc(N)nc5)cc4)CCOCC3)nc2)c1` [Example 144, 4-[4-(2-aminopyrimidin-5-yl)phenyl]-N-[5-(1-methyl-1H-imidazol-4-yl)pyridin-2-yl]tetrahydro-2H-pyran-4-carboxamide], the 50% inhibitory concentration (IC50) in experiment [1] is 66 nM; in experiment [2], 1590 nM.

`COC(=O)c1ccc(NC(=O)C2(c3ccc(-c4cnc(N)nc4)cc3)CCOCC2)nc1` [Example 146, methyl 6-[({4-[4-(2-aminopyrimidin-5-yl)phenyl]tetrahydro-2H-pyran-4-yl}carbonyl)amino]pyridine-3-carboxylate]: the 50% inhibitory concentration (IC50) came to 11.1 nM in experiment [1] and 752 nM in experiment [2].

For `Nc1ncc(-c2ccc(C3(C(=O)Nc4ccc(N5CCOCC5)cc4)CCOCC3)cc2)cn1` [Example 147, 4-[4-(2-aminopyrimidin-5-yl)phenyl]-N-[4-(mopholin-4-yl)phenyl]tetrahydro-2H-pyran-4-carboxamide], the IC50 in experiment [1] is 490 nM; in experiment [2], 2900 nM.

In the case of `Nc1ncc(-c2ccc(C3(C(=O)Nc4ccc(CN5CCS(=O)(=O)CC5)cc4)CCOCC3)cc2)cn1` [Example 148, 4-[4-(2-aminopyrimidin-5-yl)phenyl]-N-{4-[(1,1-dioxidothiomorpholin-4-yl)methyl]phenyl}tetrahydro-2H-pyran-4-carboxamide], the results for the IC50 in experiment [1] and in experiment [2] were 360 nM and 3980 nM, respectively.

For the molecule `Nc1ncc(-c2ccc(C3(C(=O)Nc4ccc(N5CCCCC5)cc4)CCOCC3)cc2)cn1` [Example 149, 4-[4-(2-aminopyrimidin-5-yl)phenyl]-N-[4-(piperidin-1-yl)phenyl]tetrahydro-2H-pyran-4-carboxamide], the half-inhibitory concentration (IC50) was found to be 260 nM in experiment [1] and 1460 nM in experiment [2].

In the case of `CC(C)(C)OC(=O)N1CCc2cc(NC(=O)C3(c4ccc(-c5cnc(N)nc5)cc4)CCOCC3)ccc2C1` [Example 150, tert-butyl 6-[({4-[4-(2-aminopyrimidin-5-yl)phenyl]tetrahydro-2H-pyran-4-yl}carbonyl)amino]-3,4-dihydroisoquinolin-2(1H)-carboxylate], the IC50 is 48 nM in experiment [1] and 3590 nM in experiment [2].

Regarding `Cc1nc(-c2ccc(NC(=O)C3(c4ccc(-c5cnc6[nH]ccc6c5)cc4)CCOCC3)nc2)cs1` [Example 151, N-[5-(2-methyl-1,3-thiazol-4-yl)pyridin-2-yl]-4-[4-(1H-pyrrolo[2,3-b]pyridin-5-yl)phenyl]tetrahydro-2H-pyran-4-carboxamide], the IC50 in experiment [1] is 2.1 nM; in experiment [2], 200 nM.

Take `Cc1nc(-c2ccc(NC(=O)C3(c4ccc(-c5cnc(N)c(C)c5)cc4)CCOCC3)nc2)cs1` [Example 152, 4-[4-(6-amino-5-methylpyridin-3-yl)phenyl]-N-[5-(2-methyl-1,3-thiazol-4-yl)pyridin-2-yl]tetrahydro-2H-pyran-4-carboxamide]: the IC50 in experiment [1] worked out at 34.5 nM; in experiment [2], 896 nM.

For the molecule `Cc1nc(-c2ccc(NC(=O)C3(c4ccc(-c5cnc6c(c5)CCN6)cc4)CCOCC3)nc2)cs1` [Example 153, 4-[4-(2,3-dihydro-1H-pyrrolo[2,3-b]pyridin-5-yl)phenyl]-N-[5-(2-methyl-1,3-thiazol-4-yl)pyridin-2-yl]tetrahydro-2H-pyran-4-carboxamide], the IC50 in experiment [1] is 7.8 nM; in experiment [2], 509 nM.
